Patent US7531555B2, “Compositions and methods for selective inhibition of nicotine acetylcholine receptors” (University of Florida Research Foundation, Inc., priority 2003, dated 2009)

Experiments:
Rat α4β2 = molecular target: T1, Rat α4β2 (Rattus norvegicus, UniProt P09483+P12390); details: mecamylamine, comparison value in discussion; read-out: IC50 (peak), expressed α4β2 subtypes; cited from earlier work
T1 construct: expressed in transfected cells; host or cells: Xenopus laevis oocytes injected with subunit cRNAs; clones from Dr. Jim Boulter (UCLA)
T1 sequence (P09483 31-630): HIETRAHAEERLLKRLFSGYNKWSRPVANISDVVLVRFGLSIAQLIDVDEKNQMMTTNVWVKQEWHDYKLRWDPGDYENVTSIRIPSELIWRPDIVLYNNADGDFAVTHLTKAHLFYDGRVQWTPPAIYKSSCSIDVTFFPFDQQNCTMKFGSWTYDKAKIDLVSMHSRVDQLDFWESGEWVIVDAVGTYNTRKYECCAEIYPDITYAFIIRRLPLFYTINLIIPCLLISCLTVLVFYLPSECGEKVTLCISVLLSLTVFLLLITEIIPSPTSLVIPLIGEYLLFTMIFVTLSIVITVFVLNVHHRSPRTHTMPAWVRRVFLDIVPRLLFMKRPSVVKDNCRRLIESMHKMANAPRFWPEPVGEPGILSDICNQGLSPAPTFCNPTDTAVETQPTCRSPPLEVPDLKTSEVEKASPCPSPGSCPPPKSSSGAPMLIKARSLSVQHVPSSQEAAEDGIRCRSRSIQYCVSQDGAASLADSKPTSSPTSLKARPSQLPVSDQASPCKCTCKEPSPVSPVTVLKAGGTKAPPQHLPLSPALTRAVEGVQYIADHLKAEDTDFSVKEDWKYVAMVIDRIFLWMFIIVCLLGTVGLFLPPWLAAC
T1 sequence (P12390 25-500): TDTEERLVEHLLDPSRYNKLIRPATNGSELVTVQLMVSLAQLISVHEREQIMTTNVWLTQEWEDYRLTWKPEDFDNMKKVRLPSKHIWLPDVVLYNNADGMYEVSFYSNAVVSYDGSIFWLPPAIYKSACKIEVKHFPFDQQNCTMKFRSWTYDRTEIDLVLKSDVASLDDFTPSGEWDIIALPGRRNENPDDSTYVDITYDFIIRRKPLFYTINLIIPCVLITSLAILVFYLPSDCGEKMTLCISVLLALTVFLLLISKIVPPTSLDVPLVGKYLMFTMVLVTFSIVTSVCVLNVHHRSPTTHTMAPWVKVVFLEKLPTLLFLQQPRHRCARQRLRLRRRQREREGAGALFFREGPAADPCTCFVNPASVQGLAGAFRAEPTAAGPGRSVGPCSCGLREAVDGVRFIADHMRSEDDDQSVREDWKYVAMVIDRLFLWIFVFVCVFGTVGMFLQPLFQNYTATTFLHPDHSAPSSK

mice [1] = assay: Body temperature, nicotine-induced hypothermia; type: in vivo; details: Saline/Nicotine (1.5 mg/kg), s.c.
Procedure: Animals. Male ICR mice (20-25 g) obtained from Harlan Laboratories (Indianapolis, Ind.) were used throughout the study. Animals were housed in groups of six and had free access to food and water. Adult, male Long-Evans rats (350-460 g), obtained from Harlan (Dublin, Va.), were individually housed in a temperature-controlled (20-22° C.) environment with a 12-hour light-dark cycle (lights on at 7 a.m.). Rats were maintained within the indicated weight range by restricted post-session feeding and had ad libitum water in their home cages. Rats were drug-naive at the beginning of the study. Animals were housed in an AALAC approved facility and the study was approved by the Institutional Animal Care and Use Committee of Virginia Commonwealth University. Body temperature. Rectal temperature was determined by a thermistor probe (inserted 24 mm) and digital thermometer (Yellow Springs Instrument Co., Yellow Springs, Ohio). […] The difference in rectal temperature before and after treatment was calculated for each mouse. The ambient temperature of the laboratory varied from 21-24° C. from day to day. […] Psychopharmacology (Berl), 1995, 117:67-73). Eight to twelve mice were tested in each treatment group and each animal was tested only once. Statistical analysis. Statistical analysis of all analgesic and in vivo studies was performed using either t-test or analysis of variance (ANOVA) with Tukey's test post hoc test when appropriate.

mice [2] = assay: Locomotor activity, nicotine-induced hypomotility; type: in vivo; details: Saline/Nicotine (1.5 mg/kg), s.c.
Procedure: Animals. Male ICR mice (20-25 g) obtained from Harlan Laboratories (Indianapolis, Ind.) were used throughout the study. Animals were housed in groups of six and had free access to food and water. Adult, male Long-Evans rats (350-460 g), obtained from Harlan (Dublin, Va.), were individually housed in a temperature-controlled (20-22° C.) environment with a 12-hour light-dark cycle (lights on at 7 a.m.). Rats were maintained within the indicated weight range by restricted post-session feeding and had ad libitum water in their home cages. Rats were drug-naive at the beginning of the study. Animals were housed in an AALAC approved facility and the study was approved by the Institutional Animal Care and Use Committee of Virginia Commonwealth University.
Locomotor activity. Mice were placed into individual Omnitech photocell activity cages (28×16.5 cm) immediately after s.c. administration of either 0.9% saline or nicotine (6.2 μmol/kg or 1 mg/kg) and were allowed to acclimate for 10 minutes. Interruptions of the photocell beams (two banks of eight cells each) were then recorded for the next 10 minutes. Data were expressed as percentage of depression where % depression=[1−(counts from nicotine-treated animals/counts from vehicle-treated animals)]×100. Mice were pretreated s.c. with either saline or TMPH 10 minutes before nicotine.
Eight to twelve mice were tested in each treatment group and each animal was tested only once.
Statistical analysis. Statistical analysis of all analgesic and in vivo studies was performed using either t-test or analysis of variance (ANOVA) with Tukey's test post hoc test when appropriate. All differences were considered significant at p<0.05. AD50 values with 95% CL for behavioral data were calculated by unweighted least-squares linear regression as described by Tallarida and Murray (Tallarida and Murray Manual of Pharmacological Calculations with Computer Programs. 1987, Springer-Verlag, New York).

## CNC1(C)C2CCC(C2)C1(C)C (stereo not drawn) [Mecamylamine]
Rat α4β2
  IC50: 2500 nM

## CN1CCCC1c1cccnc1 (single isomer, unassigned; (-)) [Nicotine, (−)-Nicotine]
Mice [1]
  Body temperature Δ° C. (Mean ± SEM): −5.0 ± 0.3 °C
Mice [2]
  Locomotor Activity # Interrupts (Mean ± SEM): 358 ± 92 # Interrupts
